Test: Stability of the disinfectant (LAE) in contact with the polyamide lacquer, LC-MS of the film
Assay type: physicochemical
Conditions: Spray 1 (composition of Example 1) in polyamide-lacquered container, 3 months at 50° C.; LAE measured in film
Protocol: Besides, the stability of the disinfectant (LAE) present in the composition of Example 1 of the present invention in contact with the polyamide lacquer of the container was measured. Full containers loaded with Spray 1 of the present invention were controlled at 50° C. for 3 months, at 40° C. form 4 to 9 months, and at 30° C. from 6 to 18 months. After that time, the composition was applied to a surface to form the adherent film, in which the amount of LAE was calculated (mg of LAE/g of film).
The method for calculating the amount of LAE consists of a liquid chromatography-mass spectrometry (LC-MS) analysis of the tested sample previously sprayed into a container (glass flask) and dried into a rotary evaporator. The exact and constant weight of the residue is determined. This residue is dissolved in Acetonitrile and doped with a known volume solution of a solution f the internal pattern (Dodine, commercially available) in a known concentration. Then it is stirred and then, pure water at pH 3-4 (acidified with HCl) is added still flushing, this allows precipitating the polymer. The supernatant is filtered and punctured by LC-MS.
• Detector: ACQ-QDa mass Detector • Column: Kromasil 100-5-C18 150×4.0 mm. (5 μm, 100 Å) • System design: Mobil phase entrance-Column-PDA entrance-QDa entrance-Waste Exit
• Fluxe: 1.00 mL/min. […]

For `CCCCCCCCCCCC(=O)N[C@@H](CCCN=C(N)N)C(=O)OCC.Cl` [LAE, Ethyl lauroyl arginate hydrochloride salt], the “reduction of the amount of disinfectant (LAE)” value was “about 11%”.

Reference: patent publication US12697411B2, “In-situ film-forming composition” (priority 2021, dated 2026)
